Measured values reported in paper PMC12221116, “Novel Quinazolinones Active against Multidrug‐Resistant Mycobacterium Tuberculosis: Synthesis, Antimicrobial Evaluation, and in Silico Exploration of Penicillin‐Binding Protein 1A as a Potential Target” (Chemmedchem, 2025).
Values after ≈ are worked out from the molar mass of the structure shown. Where two headings read alike, the source gives them in different places.

Legend:
[1] = test system: Candida parapsilosis ATCC 22019, CCM 8260; assay: Antifungal microdilution broth, quality standards; format: cell-based
[2] = test system: Lichtheimia corymbifera CCM 8077; assay: Antifungal microdilution broth, quality standards; format: cell-based; conditions: CCM8077, 48 h; for MIC: read-out: MIC, visual detection, Lichtheimia corymbifera
[3] = test system: Aspergillus fumigatus ATCC 204305; assay: Antifungal microdilution broth, quality standards; format: cell-based; conditions: ATCC204305, 48 h; for MIC: read-out: MIC, visual detection, Aspergillus fumigatus
[4] = test system: Aspergillus flavus CCM 8363; assay: Antifungal microdilution broth, quality standards; format: cell-based; conditions: CCM8363, 48 h; for MIC: read-out: MIC, visual detection, Aspergillus flavus
[5] = test system: Trichophyton interdigitale ATCC 9533, CCM 8377; assay: Antifungal microdilution broth, quality standards; format: cell-based; conditions: 120 h; for MIC: read-out: MIC, visual detection, Trichophyton interdigitale
[6] = test system: Candida albicans ATCC 24433, CCM 8320; assay: Antifungal microdilution broth, quality standards; format: cell-based; conditions: 24 h
[7] = test system: Candida krusei ATCC 6258, CCM 8271; assay: Antifungal microdilution broth, quality standards; format: cell-based
[8] = test system: Candida tropicalis ATCC 750, CCM 8264; assay: Antifungal microdilution broth, quality standards; format: cell-based; conditions: 24 h; for MIC: read-out: MIC, visual detection, Candida tropicalis
MRC-5 [9] = assay: cells; conditions: Homo sapiens
M. aurum = assay: Microdilution broth resazurin assay, MIC; format: cell-based, Mycolicibacterium aurum
Mtb H37Ra = assay: Microdilution broth resazurin assay, MIC; format: cell-based, Mycobacterium tuberculosis
HepG2 [10] = assay: cells; conditions: Homo sapiens
MDR Mtb H37Rv = assay: microbe, parasite or virus in culture; format: cell-based; conditions: Mycobacterium tuberculosis, read-out: MIC MDR Mtb H37Rv
M. kansasii = assay: Microplate Alamar Blue assay, MIC; format: cell-based, Mycobacterium kansasii; conditions: Mycobacterium kansasii; read-out: Antimycobacterial Activity MIC M. kans.
Mtb H37Rv = assay: Microplate Alamar Blue assay, MIC; format: cell-based, Mycobacterium tuberculosis; conditions: Mycobacterium tuberculosis, H37RV
M. smegmatis = assay: Microdilution broth resazurin assay, MIC; format: cell-based, Mycolicibacterium smegmatis
M. avium = assay: Microdilution broth resazurin assay, MIC; format: cell-based, Mycobacterium avium; conditions: for MIC: Mycobacterium avium, read-out: Antimycobacterial Activity MIC M. avium
Bacteria, incl. SA = assay: Antibacterial microdilution screening (eight strains); format: cell-based; conditions: read after 24 and 48 h, highest tested concentration 500 μM
Fungi = assay: Antifungal microdilution screening (eight strains); format: cell-based; conditions: read after 24 and 48 h (72 and 120 h for TI), highest tested concentration 500 μM
MRC-5 [11] = conditions: MRC-5
HepG2 [12] = conditions: HepG2
[13] = MRC5, 24 h, read-out: IC50 for MRC-5 [24 h]
[14] = MRC5, 72 h, read-out: IC50 for MRC-5 [72 h]
[15] = Mycolicibacterium aurum; read-out: Antimycobacterial Activity MIC M. aurum
[16] = Mycobacterium tuberculosis, H37RA; calculated from the measured MIC in mass concentration units; read-out: MIC Mtb H37Ra
[17] = Mycobacterium tuberculosis, H37RA; read-out: Antimycobacterial Activity MIC Mtb H37Ra
[18] = HepG2, 24 h, read-out: IC50 for HepG2 [24 h]
[19] = HepG2, 72 h, read-out: IC50 for HepG2 [72 h]
[20] = Microplate Alamar Blue assay, read-out: Antimycobacterial Activity MIC Mtb H37Rv
[21] = calculated from the measured MIC in mass concentration units, read-out: MIC Mtb H37Rv
[22] = Mycolicibacterium smegmatis, read-out: Antimycobacterial Activity MIC M. smeg.

| Structure (SMILES) | MIC [2] | MIC [3] | MIC [4] | MIC [8] | IC50 (MRC-5 [9]; [13]) | IC50 (MRC-5 [9]; [14]) | MIC (M. aurum; [15]) | MIC (Mtb H37Ra; [16]) | MIC (Mtb H37Ra; [17]) | IC50 (HepG2 [10]; [18]) | IC50 (HepG2 [10]; [19]) | MIC (MDR Mtb H37Rv) | MIC (M. kansasii) | MIC (Mtb H37Rv; [20]) | MIC (Mtb H37Rv; [21]) | MIC (M. avium) | MIC Bacteria, incl. SA (Bacteria, incl. SA) | MIC Fungi (Fungi) | MIC (M. smegmatis; [22]) | further results |
| --- | --- | --- | --- | --- | --- | --- | --- | --- | --- | --- | --- | --- | --- | --- | --- | --- | --- | --- | --- | --- |
| C[C@@H]1[C@H](O)[C@@H](C)/C=C/C=C/C=C/C=C/C=C/C=C/C=C/[C@H](O[C@@H]2O[C@H](C)[C@@H](O)[C@H](N)[C@@H]2O)C[C@@H]2O[C@](O)(C[C@@H](O)C[C@@H](O)[C@H](O)CC[C@@H](O)C[C@@H](O)CC(=O)O[C@H]1C)C[C@H](O)[C@H]2C(=O)O [amphotericin B] | 0.5 µg/mL (≈ 0.541 µM) | 1 µg/mL (≈ 1.08 µM) | 8 µg/mL (≈ 8.66 µM) | 1 µg/mL (≈ 1.08 µM) |  |  |  |  |  |  |  |  |  |  |  |  |  |  |  | IC90 ([1]; Lodderomyces parapsilosis, 24 h; read-out: IC90, spectrophotometric detection, Candida parapsilosis): 0.5 µg/mL (≈ 0.541 µM); MIC ([1]; Lodderomyces parapsilosis, 24 h; read-out: MIC, visual detection, Candida parapsilosis): 0.5 µg/mL (≈ 0.541 µM); IC90 ([2]; read-out: IC90, spectrophotometric detection, Lichtheimia corymbifera): 0.5 µg/mL (≈ 0.541 µM); IC90 ([3]; read-out: IC90, spectrophotometric detection, Aspergillus fumigatus): 1 µg/mL (≈ 1.08 µM); IC90 ([4]; read-out: IC90, spectrophotometric detection, Aspergillus flavus): 8 µg/mL (≈ 8.66 µM); IC90 ([5]; 26 °C, read-out: IC90, spectrophotometric detection, Trichophyton interdigitale): 2 µg/mL (≈ 2.16 µM); MIC ([5]; 26 °C): 2 µg/mL (≈ 2.16 µM); IC90 ([6]; read-out: IC90, spectrophotometric detection, Candida albicans): 0.5 µg/mL (≈ 0.541 µM); IC90 ([7]; Pichia kudriavzevii, 24 h; read-out: IC90, spectrophotometric detection, Candida krusei): 1 µg/mL (≈ 1.08 µM); MIC ([7]; Pichia kudriavzevii, 24 h; read-out: MIC, visual detection, Candida krusei): 1 µg/mL (≈ 1.08 µM); IC90 ([8]; read-out: IC90, spectrophotometric detection, Candida tropicalis): 1 µg/mL (≈ 1.08 µM) |
| Cc1nc2cc(Cl)ccc2c(=O)n1Cc1ccc(F)cc1 [Compound 19] |  |  |  |  | > 100 µM | > 100 µM | 31.2 µg/mL (≈ 103 µM) | 26 µM | 7.81 µg/mL | > 50 µM | > 50 µM | 41 to 165 µM (≈ 12.4 to 50 µg/mL) | > 100 µg/mL | 25 µg/mL | 83 µM | 15.6 µg/mL (≈ 51.6 µM) | inactive | inactive |  | MIC (M. smegmatis; Mycolicibacterium smegmatis; read-out: Antimycobacterial Activity MIC M. smeg.): 31.2 µg/mL (≈ 103 µM) |
| COc1ccc(Cn2c(C)nc3cc(Cl)ccc3c2=O)cc1 [Compound 17] |  |  |  |  | > 100 µM | > 100 µM |  | 25 µM |  | > 50 µM | > 50 µM | 40 µM (≈ 12.6 µg/mL) | > 100 µg/mL | 12.5 µg/mL | 40 µM | ≥ 500 µg/mL | inactive | inactive | 31.2 µg/mL (≈ 99.3 µM) | Antimycobacterial Activity MIC M. aurum (M. aurum): 15.625 µg/mL; MIC (M. aurum; Mycolicibacterium aurum, read-out: Antimycobacterial Activity MIC M. aurum): 15.6 µg/mL (≈ 49.6 µM); Antimycobacterial Activity MIC Mtb H37Ra (Mtb H37Ra): 7.81 µg/mL; MIC (Mtb H37Ra; Mycobacterium tuberculosis, H37RA, read-out: Antimycobacterial Activity MIC Mtb H37Ra): 7.81 µg/mL; MIC (Mtb H37Rv; read-out: Antimycobacterial Activity MIC Mtb H37Rv, Table S5 matching pairs series A and B): > 100 µg/mL; Antimycobacterial Activity MIC M. smeg. (M. smegmatis): 31.25 µg/mL; Antimycobacterial Activity MIC M. avium (M. avium; Table S5 matching pairs series A and B): ≥ 500 µg/mL |
| Cc1nc2cc(Cl)ccc2c(=O)n1/N=C/c1ccc(O)c([N+](=O)[O-])c1 [Compound 25] |  |  |  |  | > 1000 µM |  | ≥ 62.5 µg/mL | 87 µM | 31.2 µg/mL | > 1000 µM |  | 17 to 70 µM (≈ 6.1 to 25.1 µg/mL) | > 100 µg/mL | 12.5 µg/mL | 35 µM | 62.5 µg/mL (≈ 174 µM) | inactive | inactive | 31.2 µg/mL (≈ 87.1 µM) | nontoxic for human cell lines up to (MRC-5 [11]): up to 1000 μM; nontoxic for human cell lines up to (HepG2 [12]): up to 1000 μM |
| C[C@@H](c1ncncc1F)[C@](O)(Cn1cncn1)c1ccc(F)cc1F [voriconazole] | > 16 µg/mL | 1 µg/mL (≈ 2.86 µM) | > 16 µg/mL | > 16 µg/mL |  |  |  |  |  |  |  |  |  |  |  |  |  |  |  | IC50 ([1]; Lodderomyces parapsilosis, 24 h, read-out: IC50, spectrophotometric detection, Candida parapsilosis): 0.03 µg/mL (≈ 0.0859 µM); MIC ([1]; Lodderomyces parapsilosis, 24 h, read-out: MIC, visual detection, Candida parapsilosis): 8 µg/mL (≈ 22.9 µM); IC50 ([2]; read-out: IC50, spectrophotometric detection, Lichtheimia corymbifera): > 16 µg/mL; IC50 ([3]; read-out: IC50, spectrophotometric detection, Aspergillus fumigatus): 0.5 µg/mL (≈ 1.43 µM); IC50 ([4]; read-out: IC50, spectrophotometric detection, Aspergillus flavus): 4 µg/mL (≈ 11.5 µM); IC50 ([5]; read-out: IC50, spectrophotometric detection, Trichophyton interdigitale): > 16 µg/mL; MIC [5]: > 16 µg/mL; IC50 ([6]; read-out: IC50, spectrophotometric detection, Candida albicans): 0.03 µg/mL (≈ 0.0859 µM); MIC ([6]; read-out: MIC, visual detection, Candida albicans): > 16 µg/mL; MIC ([7]; Pichia kudriavzevii, 24 h, read-out: MIC, visual detection, Candida krusei): 0.5 µg/mL (≈ 1.43 µM) |
